Measured values reported in US10844038B2, “1,2-dithiolane compounds useful in neuroprotection, autoimmune and cancer diseases and conditions” (SABILA BIOSCIENCES LLC, priority 2016, dated 2020).

Experiments:
[1] = biological target: FYN isoform (b) (Homo sapiens (Human), UniProt P06241); assay: Kinase binding assay CaPBA; conditions: read-out: IC50 Activity Levels Against FYN isoforms, YES1 and MEK5: FYN isoform (b)
Source text: (§1) 4. Kinase Binding Assay CaPBA:

[2] = biological target: FYN isoform (a) (Homo sapiens (Human), UniProt P06241); assay: Kinase binding assay CaPBA; conditions: read-out: IC50 Activity Levels Against FYN isoforms, YES1 and MEK5: FYN isoform (a)
Source text: as §1

[3] = biological target: FLT3-ITD; assay: Radioisotope filter binding assay; type: biochemical; conditions: read-out: IC50 Activity Levels Against Type III NRT Kinases: FLT3-ITD
Experimental: (§2) 3. Radioisotope Filter Binding Assay:
(§3) In this assay format, it directly detects the true product without the use of modified substrates or coupling enzymes (Uitdehaag, J. C., et al. Br. J. Pharmacol. 2012, 166, 858-876; Hastie, C. J., et al. Nat. Protoc. 2006, 1, 968-971) according to equation 1. Substrate+[γ−^33P]−ATP→^33P-Substrate+ADP eq 1
(§4) The protocol calls for test compound of the invention to be incubated with kinase, substrate, cofactors, and radio-isotope-labeled ATP (^33P-gamma-ATP). The reaction mixtures are then spotted onto filter papers which bind the radioisotope labeled catalytic product. Unreacted phosphate is removed via washing. The reagents used include base reaction buffer; 20 mM Hepes (pH 7.5), 10 mM MgCl2, 1 mM EGTA, 0.02% Brij35, 0.02 mg/ml BSA, 0.1 mM Na3VO4, 2 mM DTT, 1% DMSO. The reaction procedure include the following steps: (1) prepare indicated substrate in freshly prepared base reaction buffer, (2) deliver any required cofactors to the substrate solution above, (3) deliver indicated kinase into the substrate solution and gently mix, (4) deliver compounds in DMSO into the kinase reaction mixture by Acoustic technology (Echo550; nanoliter range), incubate for 20 minutes at room temperature, (5) deliver ^33P-ATP (specific activity 10 μCi/μL) into the reaction mixture to initiate the reaction, (6) incubate kinase reaction for 2 hours at room temperature, (7) reactions are spotted onto P81 ion exchange paper, (8) detect kinase activity by filter-binding method.

[4] = biological target: SRC (Homo sapiens (Human), UniProt P12931); assay: Radioisotope filter binding assay; type: biochemical; conditions: read-out: IC50 Activity Levels Against SRC Family Kinases: SRC
SRC, sequence (P12931 whole entry, looked up): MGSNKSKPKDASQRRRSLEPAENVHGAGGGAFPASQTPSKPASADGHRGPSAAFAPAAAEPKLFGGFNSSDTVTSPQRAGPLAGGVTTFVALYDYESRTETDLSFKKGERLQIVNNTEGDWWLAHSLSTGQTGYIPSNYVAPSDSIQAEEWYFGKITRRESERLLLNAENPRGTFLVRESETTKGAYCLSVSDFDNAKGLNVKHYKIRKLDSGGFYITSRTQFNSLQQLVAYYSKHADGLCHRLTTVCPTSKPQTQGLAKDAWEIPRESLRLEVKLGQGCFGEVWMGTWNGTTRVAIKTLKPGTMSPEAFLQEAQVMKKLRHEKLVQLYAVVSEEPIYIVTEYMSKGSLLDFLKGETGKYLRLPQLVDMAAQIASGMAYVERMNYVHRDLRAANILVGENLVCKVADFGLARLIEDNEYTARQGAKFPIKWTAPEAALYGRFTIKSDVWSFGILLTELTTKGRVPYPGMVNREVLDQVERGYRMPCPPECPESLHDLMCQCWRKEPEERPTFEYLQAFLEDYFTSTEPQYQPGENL
Experimental: as §2, §3, §4

[5] = biological target: HCK (Homo sapiens (Human), UniProt P08631); assay: Radioisotope filter binding assay; type: biochemical; conditions: read-out: IC50 Activity Levels Against SRC Family Kinases: HCK
HCK, sequence (P08631 whole entry): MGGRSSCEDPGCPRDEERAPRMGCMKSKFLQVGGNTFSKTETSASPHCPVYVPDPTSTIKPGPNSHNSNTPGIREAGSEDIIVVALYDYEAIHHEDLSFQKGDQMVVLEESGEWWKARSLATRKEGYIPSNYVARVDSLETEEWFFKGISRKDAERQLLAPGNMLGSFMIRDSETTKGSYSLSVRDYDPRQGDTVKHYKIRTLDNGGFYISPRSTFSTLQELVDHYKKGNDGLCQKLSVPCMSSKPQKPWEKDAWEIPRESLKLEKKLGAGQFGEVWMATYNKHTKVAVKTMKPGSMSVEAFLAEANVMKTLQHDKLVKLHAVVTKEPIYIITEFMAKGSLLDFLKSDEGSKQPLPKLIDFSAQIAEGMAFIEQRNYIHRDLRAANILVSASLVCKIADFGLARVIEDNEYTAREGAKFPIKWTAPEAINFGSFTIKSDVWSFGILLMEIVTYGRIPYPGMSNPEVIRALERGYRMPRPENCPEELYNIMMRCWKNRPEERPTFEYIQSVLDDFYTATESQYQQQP
Experimental: as §2, §3, §4

[6] = biological target: CRAP (Homo sapiens (Human), UniProt P04049); assay: Radioisotope filter binding assay; type: biochemical; conditions: read-out: IC50 Activity Levels Against MAPK Pathway Kinases: CRAP
CRAP, sequence (P04049 whole entry): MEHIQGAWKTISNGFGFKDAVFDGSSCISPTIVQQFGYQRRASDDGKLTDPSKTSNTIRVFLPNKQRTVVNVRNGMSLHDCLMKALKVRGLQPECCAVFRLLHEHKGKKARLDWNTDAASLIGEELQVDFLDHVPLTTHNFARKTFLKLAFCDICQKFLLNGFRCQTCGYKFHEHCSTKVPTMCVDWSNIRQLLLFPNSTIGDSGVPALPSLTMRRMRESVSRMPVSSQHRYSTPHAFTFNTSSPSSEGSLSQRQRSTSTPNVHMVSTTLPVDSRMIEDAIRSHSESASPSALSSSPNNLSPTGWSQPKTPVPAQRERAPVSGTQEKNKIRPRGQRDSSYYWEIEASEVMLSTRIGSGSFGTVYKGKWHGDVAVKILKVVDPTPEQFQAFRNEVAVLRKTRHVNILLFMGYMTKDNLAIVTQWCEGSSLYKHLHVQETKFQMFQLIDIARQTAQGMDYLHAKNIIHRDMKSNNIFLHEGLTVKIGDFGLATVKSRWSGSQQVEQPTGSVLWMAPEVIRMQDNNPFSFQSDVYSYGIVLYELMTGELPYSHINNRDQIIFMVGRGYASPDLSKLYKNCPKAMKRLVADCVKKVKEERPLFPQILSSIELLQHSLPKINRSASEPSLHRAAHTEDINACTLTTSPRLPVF
Experimental: as §2, §3, §4

[7] = biological target: FYN (Homo sapiens (Human), UniProt P06241); assay: Radioisotope filter binding assay; type: biochemical; conditions: read-out: IC50 Activity Levels Against SRC Family Kinases: FYN
FYN, sequence (P06241 whole entry): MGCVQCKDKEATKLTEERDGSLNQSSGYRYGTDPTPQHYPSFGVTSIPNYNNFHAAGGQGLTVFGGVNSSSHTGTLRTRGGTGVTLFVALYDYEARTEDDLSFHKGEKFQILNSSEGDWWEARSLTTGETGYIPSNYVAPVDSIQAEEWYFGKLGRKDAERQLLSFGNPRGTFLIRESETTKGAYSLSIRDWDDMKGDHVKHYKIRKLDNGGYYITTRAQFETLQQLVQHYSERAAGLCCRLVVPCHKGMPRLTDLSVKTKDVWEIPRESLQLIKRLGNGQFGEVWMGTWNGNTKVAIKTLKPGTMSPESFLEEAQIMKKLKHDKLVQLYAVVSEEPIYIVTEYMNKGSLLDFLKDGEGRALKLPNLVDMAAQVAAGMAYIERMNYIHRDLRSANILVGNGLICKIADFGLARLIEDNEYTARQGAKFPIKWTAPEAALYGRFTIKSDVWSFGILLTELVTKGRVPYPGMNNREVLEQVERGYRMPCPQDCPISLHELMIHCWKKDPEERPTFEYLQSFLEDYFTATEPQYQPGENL
Experimental: as §2, §3, §4

[8] = biological target: LCK (Homo sapiens (Human), UniProt P06239); assay: Radioisotope filter binding assay; type: biochemical; conditions: read-out: IC50 Activity Levels Against SRC Family Kinases: LCK
LCK, sequence (P06239 whole entry): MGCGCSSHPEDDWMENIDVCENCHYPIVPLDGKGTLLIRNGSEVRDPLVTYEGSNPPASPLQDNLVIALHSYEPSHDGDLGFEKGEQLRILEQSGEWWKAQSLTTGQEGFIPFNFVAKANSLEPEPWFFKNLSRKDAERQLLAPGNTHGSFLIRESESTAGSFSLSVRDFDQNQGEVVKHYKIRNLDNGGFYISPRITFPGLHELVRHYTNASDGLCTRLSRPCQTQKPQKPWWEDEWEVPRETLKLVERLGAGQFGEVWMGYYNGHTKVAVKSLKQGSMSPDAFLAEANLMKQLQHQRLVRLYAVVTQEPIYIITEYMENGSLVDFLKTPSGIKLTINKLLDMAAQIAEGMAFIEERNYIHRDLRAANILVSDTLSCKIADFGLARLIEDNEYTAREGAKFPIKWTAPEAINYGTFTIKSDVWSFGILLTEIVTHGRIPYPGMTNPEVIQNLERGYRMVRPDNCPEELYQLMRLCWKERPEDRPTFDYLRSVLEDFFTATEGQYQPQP
Experimental: as §2, §3, §4

[9] = biological target: T1, YES1 (Homo sapiens (Human), UniProt P07947); assay: Radioisotope filter binding assay; type: biochemical; conditions: read-out: IC50 Activity Levels Against SRC Family Kinases: YES1
T1 sequence (P07947 whole entry): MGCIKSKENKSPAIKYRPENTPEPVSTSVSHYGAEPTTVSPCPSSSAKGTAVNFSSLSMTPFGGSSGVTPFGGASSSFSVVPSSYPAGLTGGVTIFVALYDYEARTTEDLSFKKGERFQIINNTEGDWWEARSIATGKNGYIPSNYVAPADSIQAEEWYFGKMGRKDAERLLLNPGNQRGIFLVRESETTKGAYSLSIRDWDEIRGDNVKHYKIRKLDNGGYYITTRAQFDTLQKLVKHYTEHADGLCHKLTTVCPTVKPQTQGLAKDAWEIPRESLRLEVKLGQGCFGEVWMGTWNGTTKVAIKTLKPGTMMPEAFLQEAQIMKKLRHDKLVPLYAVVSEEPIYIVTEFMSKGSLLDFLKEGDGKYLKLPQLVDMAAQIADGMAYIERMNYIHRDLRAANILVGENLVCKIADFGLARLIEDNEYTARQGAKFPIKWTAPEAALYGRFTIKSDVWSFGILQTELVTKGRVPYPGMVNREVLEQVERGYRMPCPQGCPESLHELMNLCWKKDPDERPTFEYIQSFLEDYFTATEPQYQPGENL
Experimental: as §2, §3, §4

[10] = biological target: FLT3 (Homo sapiens (Human), UniProt P36888); assay: Radioisotope filter binding assay; type: biochemical; conditions: read-out: IC50 Activity Levels Against Type III NRT Kinases: FLT3
FLT3, sequence (P36888 27-993): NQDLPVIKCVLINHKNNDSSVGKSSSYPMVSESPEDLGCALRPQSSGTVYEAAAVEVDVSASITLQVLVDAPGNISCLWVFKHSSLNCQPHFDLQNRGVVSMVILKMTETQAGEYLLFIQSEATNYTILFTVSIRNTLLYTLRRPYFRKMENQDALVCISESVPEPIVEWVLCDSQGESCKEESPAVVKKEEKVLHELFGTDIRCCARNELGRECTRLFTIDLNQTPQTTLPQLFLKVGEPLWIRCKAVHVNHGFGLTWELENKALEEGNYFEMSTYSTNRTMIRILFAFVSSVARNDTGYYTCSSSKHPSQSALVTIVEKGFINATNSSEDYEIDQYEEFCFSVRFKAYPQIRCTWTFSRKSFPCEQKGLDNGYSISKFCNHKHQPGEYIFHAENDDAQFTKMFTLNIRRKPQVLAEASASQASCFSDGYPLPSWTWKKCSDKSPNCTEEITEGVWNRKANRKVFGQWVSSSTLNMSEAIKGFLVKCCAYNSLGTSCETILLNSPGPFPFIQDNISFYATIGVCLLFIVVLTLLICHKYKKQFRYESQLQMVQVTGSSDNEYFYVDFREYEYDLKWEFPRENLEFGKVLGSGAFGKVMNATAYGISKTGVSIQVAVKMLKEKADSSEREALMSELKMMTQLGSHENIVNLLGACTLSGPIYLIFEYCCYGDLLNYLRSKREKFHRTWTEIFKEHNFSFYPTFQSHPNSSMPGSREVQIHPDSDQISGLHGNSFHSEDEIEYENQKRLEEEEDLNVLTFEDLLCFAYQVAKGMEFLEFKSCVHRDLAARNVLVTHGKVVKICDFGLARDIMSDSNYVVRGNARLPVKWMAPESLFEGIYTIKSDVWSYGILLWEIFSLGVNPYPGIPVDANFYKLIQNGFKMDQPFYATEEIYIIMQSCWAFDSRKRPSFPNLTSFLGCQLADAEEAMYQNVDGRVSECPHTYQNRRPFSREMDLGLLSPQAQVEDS
Experimental: as §2, §3, §4

[11] = biological target: MEK5 (Homo sapiens (Human), UniProt Q13163); assay: Kinase binding assay CaPBA; conditions: read-out: IC50 Activity Levels Against FYN isoforms, YES1 and MEK5: MEK5
Source text: as §1

[12] = biological target: T1, YES1; assay: Rabbit reticulocyte lysate assay (KinaseSeeker competition binding); conditions: read-out: IC50 Activity Levels Against SRC Family Kinases: YES1
Experimental: (§5) 1. Rabbit Reticulocyte Lysate Assay Design:
(§6) KinaseSeeker is a homogeneous competition binding assay where the displacement of an active site dependent probe by an inhibitor is measured by a change in luminescence signal. Luminescence readout translates into a highly sensitive and robust assay with low background and minimal interference from test compounds.
(§7) 10 mM stock solutions of test compounds were serially diluted in DMSO to make assay stocks. Prior to initiating IC50 determinations, the test compounds were evaluated for false positive against split-luciferase.
(§8) Each test compound was screened in duplicate against target kinase at 7 different concentrations. For kinase assays, Cfluc-kinase was translated along with Fos-Nfluc using a cell-free system (rabbit reticulocyte lysate) at 30° C. for 90 min. 24 uL aliquot of this lysate containing either 1 uL of DMSO (for no-inhibitor control) or compound solution in DMSO was incubated for 30 minutes at room temperature followed by 1 hour in presence of a kinase specific probe. 80 uL of luciferin assay reagent was added to each solution and luminescence was immediately measured on a luminometer.
(§9) The % Inhibition and % Activity Remaining was calculated using the following equation: % Inhibition=[(ALUControl−ALUSample)/ALUControl]×100 % Activity Remaining=100−% Inhibition
(§10) The % Activity was plotted against compound concentration and the IC50 was determined for each compound using a 7-point curve (Jester, B. W.; et. al. J. Am. Chem. Soc. 2010, 132, 11727-11735. Jester, B. W., et. al. J. Med. Chem. 2012, 55, 1526-1537). Biological activity of representative compounds of the disclosure are described in Table 5.

[13] = biological target: FGR (Homo sapiens (Human), UniProt P09769); assay: as above; conditions: read-out: IC50 Activity Levels Against SRC Family Kinases: FGR
FGR, sequence (P09769 whole entry): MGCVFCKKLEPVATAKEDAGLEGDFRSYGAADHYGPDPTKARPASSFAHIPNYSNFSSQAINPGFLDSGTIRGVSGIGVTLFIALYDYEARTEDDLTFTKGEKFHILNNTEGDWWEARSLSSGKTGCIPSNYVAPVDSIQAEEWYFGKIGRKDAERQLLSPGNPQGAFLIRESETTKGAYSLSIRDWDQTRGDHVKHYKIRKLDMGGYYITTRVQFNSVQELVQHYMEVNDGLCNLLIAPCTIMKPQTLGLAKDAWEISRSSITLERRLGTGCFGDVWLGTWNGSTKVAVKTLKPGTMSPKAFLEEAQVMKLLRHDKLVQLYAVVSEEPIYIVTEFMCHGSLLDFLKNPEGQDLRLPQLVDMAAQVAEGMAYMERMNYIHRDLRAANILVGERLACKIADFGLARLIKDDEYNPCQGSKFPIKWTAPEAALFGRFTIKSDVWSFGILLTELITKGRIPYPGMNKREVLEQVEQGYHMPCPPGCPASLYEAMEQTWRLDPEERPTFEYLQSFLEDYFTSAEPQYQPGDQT
Experimental: as §5, §6, §7, §8, §9, §10

Row | IC50 [1] | IC50 [2] | IC50 [3] | IC50 [4] | IC50 [5] | IC50 [6] | IC50 [7] | IC50 [8] | IC50 [9] | IC50 [10] | IC50 [11] | IC50 [12] | IC50 [13] | SMILES
1 | 0.005 to 0.099 µM | 0.005 to 0.099 µM | 0.1 to 0.999 µM | 0.1 to 0.999 µM | < 0.005 µM | 1 to 10 µM | < 0.005 µM | < 0.005 µM | < 0.005 µM | 0.005 to 0.099 µM |  |  |  | Nc1ncnc2c1c(-c1ccc(Oc3ccccc3)cc1)nn2C[C@@H]1SSC[C@H]1O [43 A.]
2 | 0.005 to 0.099 µM | 0.005 to 0.099 µM | 0.1 to 0.999 µM | 0.005 to 0.099 µM | < 0.005 µM |  | < 0.005 µM | < 0.005 µM | < 0.005 µM | 0.1 to 0.999 µM | 1 to 10 µM | 0.1 to 0.999 µM | 0.1 to 0.999 µM | Nc1ncnc2c1c(-c1ccc(Oc3ccccc3)cc1)nn2C[C@H]1SSC[C@@H]1O [43 B.]
3 |  |  | 0.1 to 0.999 µM | 0.1 to 0.999 µM | 0.005 to 0.099 µM | 1 to 10 µM | 0.005 to 0.099 µM | 0.005 to 0.099 µM | < 0.005 µM | 0.005 to 0.099 µM |  |  |  | Nc1ncnc2c1c(-c1ccc(Oc3ccccc3)cc1)nn2C[C@@H]1SSC[C@@H]1O [46 A.]
4 |  |  | 0.1 to 0.999 µM | 0.005 to 0.099 µM | 0.005 to 0.099 µM | 1 to 10 µM | < 0.005 µM | < 0.005 µM | < 0.005 µM | 0.005 to 0.099 µM | 1 to 10 µM | 0.005 to 0.099 µM | 0.1 to 0.999 µM | Nc1ncnc2c1c(-c1ccc(Oc3ccccc3)cc1)nn2C[C@H]1SSC[C@H]1O [46 B.]
